In US20100048611A1, “TETRAHYDROPYRROLOPYRIDINE, TETRAHYDROPYRAZOLOPYRIDINE, TETRAHYDRO-IMIDAZOPYRIDINE AND TETRAHYDROTRIAZOLOPYRIDINE DERIVATIVES AND USE THEREOF” (Bayer Healthcare AG, priority 2006, published 2010) one finds IC50 data, which are given here for 1 compound.

The target in the assay is human factor Xa (FXa) (Homo sapiens, UniProt P00742). Nature of the assay: Determination of the factor Xa inhibition (chromogenic substrate). The class given is biochemical. As to conditions: chromogenic substrate Pefachrome FXa, 25° C., extinction at 405 nm. As for the experimental part:
a.1) Determination of the Factor Xa Inhibition:
The enzymatic activity of human factor Xa (FXa) is measured using the conversion of a chromogenic substrate specific for FXa. Factor Xa cleaves p-nitroaniline from the chromogenic substrate. The determinations are carried out in microtitre plates as follows:
The test substances, in various concentrations, are dissolved in DMSO and incubated for 10 minutes at 25° C. with human FXa ([…] dissolved in 50 mmol of Tris buffer [C,C,C-tris(hydroxymethyl)aminomethane], 150 mmol/l of NaCl, 0.1% BSA [bovine serum albumin], pH=8.3). Pure DMSO is used as control. The chromogenic substrate (150 μmol/l of Pefachrome® FXa from Pentapharm) is then added. After an incubation time of 20 minutes at 25° C., the extinction at 405 nm is determined.

Sequence of human factor Xa (FXa) (P00742 235-488 limits assumed): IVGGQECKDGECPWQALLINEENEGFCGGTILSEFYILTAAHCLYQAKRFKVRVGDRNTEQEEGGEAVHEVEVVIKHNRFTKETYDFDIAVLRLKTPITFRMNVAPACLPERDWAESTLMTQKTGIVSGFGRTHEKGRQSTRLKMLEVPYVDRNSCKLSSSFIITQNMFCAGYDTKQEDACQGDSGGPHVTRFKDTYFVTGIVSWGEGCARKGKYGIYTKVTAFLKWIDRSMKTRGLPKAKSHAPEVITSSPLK
Sequence of human factor Xa (FXa) (P00742 41-179 partner limits assumed): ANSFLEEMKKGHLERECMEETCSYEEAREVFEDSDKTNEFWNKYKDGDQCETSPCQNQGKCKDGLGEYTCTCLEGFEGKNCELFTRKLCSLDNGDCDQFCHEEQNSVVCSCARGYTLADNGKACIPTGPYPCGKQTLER

Turning to `COc1ccc(-n2nc(C(N)=O)c3c2C(=O)N(c2ccc(N4CCOC4=N)cc2)CC3)cc1` [Example 1, 6-[4-(2-Imino-1,3-oxazolidin-3-yl)phenyl]-1-(4-methoxyphenyl)-7-oxo-4,5,6,7-tetrahydro-1H-pyrazolo[3,4-c]pyridine-3-carboxamide methanesulphonate], the concentration for half-maximal inhibition (IC50) (usually the concentration that inhibits the measured activity by half) amounted to 0.8 nM.
